The data set relates to CCRIS mutagenicity, Ames/micronucleus/aberration tests. Description: CCRIS mutagenicity studies.
[1] abbreviates: Test System: AMES SALMONELLA TYPHIMURIUM, Strain/Indicator: TA100, Metabolic Activation: NONE, Method: PREINCUBATION
[2] abbreviates: Test System: AMES SALMONELLA TYPHIMURIUM, Strain/Indicator: TA1537, Metabolic Activation: NONE, Method: STANDARD PLATE.

Calls of active or inactive are those of the source. The rule behind the calls is not given here.

Consider `c1ccc2c(c1)ccc1ccc3sccc3c12`, for which the mutagenic call was “active; positive” (Test System: Ames Salmonella typhimurium, Strain/Indicator: TA100, Metabolic Activation: None, Method: Plate incorporation) and “inactive; negative” (Test System: Ames Salmonella typhimurium, Strain/Indicator: TA104, Metabolic Activation: None, Method: Plate incorporation).
As to `O=C1[C@H]2CC=CC[C@H]2C(=O)N1SC(Cl)(Cl)Cl`, the mutagenic call is, setting by setting: (Test System: AMES SALMONELLA TYPHIMURIUM, Strain/Indicator: G46, Metabolic Activation: MOUSE, LIVER, S-9, PHENOBARBITAL, Method: STANDARD PLATE) “active; positive”; (Test System: AMES SALMONELLA TYPHIMURIUM, Strain/Indicator: TA97A, Metabolic Activation: NONE, Method: STANDARD PLATE) “active; positive”; (Test System: AMES SALMONELLA TYPHIMURIUM, Strain/Indicator: TA97A, Metabolic Activation: RAT, LIVER, S-9, AROCLOR 1254, Method: STANDARD PLATE) “inactive; negative”; (Test System: AMES SALMONELLA TYPHIMURIUM, Strain/Indicator: TA98, Metabolic Activation: NONE) “active; positive”; (Test System: AMES SALMONELLA TYPHIMURIUM, Strain/Indicator: TA98, Metabolic Activation: RAT, LIVER, S-9, AROCLOR 1254) “active; positive”; (Test System: AMES SALMONELLA TYPHIMURIUM, Strain/Indicator: TA98, Metabolic Activation: RAT, LIVER, S-9, AROCLOR 1254, Method: STANDARD PLATE) “active; positive”. Further, the mutagenic call (Test System: AMES SALMONELLA TYPHIMURIUM, Strain/Indicator: TA100, Metabolic Activation: NONE) is “active; positive”; the mutagenic call under setting [1] is “active; positive”; the mutagenic call (Test System: AMES SALMONELLA TYPHIMURIUM, Strain/Indicator: TA100, Metabolic Activation: RAT, LIVER, S-9, AROCLOR 1254) is “active; positive”; the mutagenic call (Test System: AMES SALMONELLA TYPHIMURIUM, Strain/Indicator: TA100, Metabolic Activation: RAT, LIVER, S-9, Method: STANDARD PLATE) is “active; positive”; the mutagenic call (Test System: AMES SALMONELLA TYPHIMURIUM, Strain/Indicator: TA100, Metabolic Activation: S-9 MIX, Method: STANDARD PLATE) is “active; positive”; the mutagenic call (Test System: AMES SALMONELLA TYPHIMURIUM, Strain/Indicator: TA102, Metabolic Activation: NONE) is “active; positive”. Also, the mutagenic call was “active; positive” (Test System: AMES SALMONELLA TYPHIMURIUM, Strain/Indicator: TA102, Metabolic Activation: RAT, LIVER, S-9, AROCLOR 1254); “inactive; negative” (Test System: AMES SALMONELLA TYPHIMURIUM, Strain/Indicator: TA102, Metabolic Activation: RAT, LIVER, S-9, AROCLOR 1254, Method: STANDARD PLATE); “inactive; negative” (Test System: AMES SALMONELLA TYPHIMURIUM, Strain/Indicator: TA102, Metabolic Activation: RAT, LIVER, S-9, PHENOBARBITAL, Method: STANDARD PLATE); “inactive; negative” (Test System: AMES SALMONELLA TYPHIMURIUM, Strain/Indicator: TA104, Metabolic Activation: RAT, LIVER, S-9, AROCLOR 1254, Method: STANDARD PLATE); “active; positive” (Test System: AMES SALMONELLA TYPHIMURIUM, Strain/Indicator: TA104, Metabolic Activation: RAT, LIVER, S-9, PHENOBARBITAL, Method: STANDARD PLATE); “active; positive” (Test System: AMES SALMONELLA TYPHIMURIUM, Strain/Indicator: TA1535, Metabolic Activation: MOUSE, LIVER, S-9, PHENOBARBITAL, Method: STANDARD PLATE). Moreover, the mutagenic call by setting is: (Test System: AMES SALMONELLA TYPHIMURIUM, Strain/Indicator: TA1535, Metabolic Activation: NONE) “active; positive”; (Test System: AMES SALMONELLA TYPHIMURIUM, Strain/Indicator: TA1535, Metabolic Activation: NONE, Method: STANDARD PLATE) “active; positive”; (Test System: AMES SALMONELLA TYPHIMURIUM, Strain/Indicator: TA1535, Metabolic Activation: RAT, LIVER, S-9, AROCLOR 1254) “active; positive”; (Test System: AMES SALMONELLA TYPHIMURIUM, Strain/Indicator: TA1535, Metabolic Activation: RAT, LIVER, S-9, PHENOBARBITAL, Method: STANDARD PLATE) “active; positive”; (Test System: AMES SALMONELLA TYPHIMURIUM, Strain/Indicator: TA1537, Metabolic Activation: NONE) “active; positive”; under setting [2], “active; positive”. Further, the mutagenic call by setting is: (Test System: AMES SALMONELLA TYPHIMURIUM, Strain/Indicator: TA1537, Metabolic Activation: RAT, LIVER, S-9, AROCLOR 1254) “active; positive”; (Test System: AMES SALMONELLA TYPHIMURIUM, Strain/Indicator: TA1537, Metabolic Activation: RAT, LIVER, S-9, PHENOBARBITAL, Method: STANDARD PLATE) “active; positive”; (Test System: AMES SALMONELLA TYPHIMURIUM, Strain/Indicator: TA1950, Metabolic Activation: NONE, Method: SPOT) “active; positive”; (Test System: Ames Salmonella typhimurium, Strain/Indicator: TA100, Metabolic Activation: None, Method: Preincubation) “active; positive”; (Test System: Ames Salmonella typhimurium, Strain/Indicator: TA1975P, Metabolic Activation: None, Method: Preincubation) “active; positive (at higher doses)”; (Test System: CHINESE HAMSTER OVARY, Strain/Indicator: CHO-K1-BH4 (HGPRT), Metabolic Activation: RAT, LIVER, S-9, AROCLOR, Method: SUSPENSION/PLATE) “active; positive”. Further, the mutagenic call (Test System: CHINESE HAMSTER V-79, Strain/Indicator: V-79/8-AZAGUANINE, Metabolic Activation: NONE, Method: STANDARD PLATE) was “active; positive”; the mutagenic call (Test System: CHINESE HAMSTER V-79, Strain/Indicator: V-79/OUABAIN, Metabolic Activation: NONE, Method: STANDARD PLATE) is “active; positive”; the mutagenic call (Test System: E. COLI, Strain/Indicator: WP2, Metabolic Activation: NONE, Method: STANDARD PLATE) is “active; positive”; the mutagenic call (Test System: E. COLI, Strain/Indicator: WP2, Metabolic Activation: RAT, LIVER, S-9, Method: STANDARD PLATE) was “active; positive”; the mutagenic call (Test System: E. COLI, Strain/Indicator: WP2 UVRA, Metabolic Activation: NONE, Method: STANDARD PLATE) was “active; positive”; the mutagenic call (Test System: E. COLI, Strain/Indicator: WP2 UVRA, Metabolic Activation: RAT, LIVER, S-9, AROCLOR 1254, Method: STANDARD PLATE) is “active; positive”.
With `CCCCC(=O)Nc1snc2ccc(Cl)cc12`, the mutagenic call (Test System: AMES SALMONELLA TYPHIMURIUM, Strain/Indicator: TA100, Metabolic Activation: NONE, Method: STANDARD PLATE) is “inactive; negative”; the mutagenic call (Test System: AMES SALMONELLA TYPHIMURIUM, Strain/Indicator: TA100, Metabolic Activation: S-9, Method: STANDARD PLATE) is “inactive; negative”; the mutagenic call under setting [2] is “inactive; negative”; the mutagenic call (Test System: AMES SALMONELLA TYPHIMURIUM, Strain/Indicator: TA1537, Metabolic Activation: S-9, Method: STANDARD PLATE) was “inactive; negative”.
In the case of `CCN(CC)C(=S)SSC(=S)N(CC)CC`, the mutagenic call (Test System: AMES SALMONELLA TYPHIMURIUM, Strain/Indicator: TA98, Metabolic Activation: HAMSTER, LIVER, S-9, AROCLOR 1254 (10%), Method: PREINCUBATION) was “inactive; negative”; the mutagenic call (Test System: AMES SALMONELLA TYPHIMURIUM, Strain/Indicator: TA98, Metabolic Activation: NONE, Method: PREINCUBATION) is “inactive; negative”; the mutagenic call (Test System: AMES SALMONELLA TYPHIMURIUM, Strain/Indicator: TA98, Metabolic Activation: RAT, LIVER, S-9, AROCLOR 1254 (10%), Method: PREINCUBATION) was “inactive; negative”; the mutagenic call (Test System: AMES SALMONELLA TYPHIMURIUM, Strain/Indicator: TA100, Metabolic Activation: HAMSTER, LIVER, S-9, AROCLOR 1254 (10%), Method: PREINCUBATION) is “inactive; negative”; the mutagenic call under setting [1] was “inactive; negative”; the mutagenic call (Test System: AMES SALMONELLA TYPHIMURIUM, Strain/Indicator: TA100, Metabolic Activation: RAT, LIVER, S-9, AROCLOR 1254 (10%), Method: PREINCUBATION) is “inactive; negative”. Further, the mutagenic call by setting is: (Test System: AMES SALMONELLA TYPHIMURIUM, Strain/Indicator: TA1535, Metabolic Activation: HAMSTER, LIVER, S-9, AROCLOR 1254 (10%), Method: PREINCUBATION) “inactive; negative”; (Test System: AMES SALMONELLA TYPHIMURIUM, Strain/Indicator: TA1535, Metabolic Activation: NONE, Method: PREINCUBATION) “inactive; negative”; (Test System: AMES SALMONELLA TYPHIMURIUM, Strain/Indicator: TA1535, Metabolic Activation: RAT, LIVER, S-9, AROCLOR 1254 (10%), Method: PREINCUBATION) “inactive; negative”; (Test System: AMES SALMONELLA TYPHIMURIUM, Strain/Indicator: TA1537, Metabolic Activation: HAMSTER, LIVER, S-9, AROCLOR 1254 (10%), Method: PREINCUBATION) “inactive; negative”; (Test System: AMES SALMONELLA TYPHIMURIUM, Strain/Indicator: TA1537, Metabolic Activation: NONE, Method: PREINCUBATION) “inactive; negative”; (Test System: AMES SALMONELLA TYPHIMURIUM, Strain/Indicator: TA1537, Metabolic Activation: RAT, LIVER, S-9, AROCLOR 1254 (10%), Method: PREINCUBATION) “inactive; negative”. The mutagenic call (Test System: MOUSE LYMPHOMA, Strain/Indicator: L5178Y (TK+/TK-), Metabolic Activation: NONE, Method: SUSPENSION/PLATE) was “active; positive”.

These data come from PubChem BioAssay AID1259407 (Chemical Carcinogenesis Research Information System (CCRIS), 2018).
